Data: patent publication US20250145665A1, “MACROCYCLIC PEPTIDES USEFUL AS MODULATORS OF TNF ALPHA” (Bristol-Myers Squibb Company, priority 2023, published 2025)
pIC50: −log10 of the molar value. Starred links: 1 amine or outer side, 2 acyl side, 3 side chain; linkers in the order of their positions; H or OH if unused. Positions of bridges follow the written chain, without caps; N, C: chain ends. Non-standard residues stand in square brackets, D forms with d. Residues, ends and D or L forms follow the SMILES beside them. *: point of attachment. Bip(4'-NHCO-C6H4-3-CH2COOH) = N[C@@H](Cc1ccc(-c2ccc(NC(=O)c3cccc(CC(=O)O)c3)cc2)cc1)C(=O)O; X65 = O=C(O)Cc1cccc(NC(=O)c2ccc(-c3ccc(C[C@H](N[*:1])C(=O)[*:2])cc3)cc2)c1; Bip(4'-NHBz) = N[C@@H](Cc1ccc(-c2ccc(NC(=O)c3ccccc3)cc2)cc1)C(=O)O; Bip(4'-NH) = O=C([C@H](Cc1ccc(-c2ccc(N[*:3])cc2)cc1)N[*:1])[*:2]; X14 = O=C([C@H](Cc1ccc(-c2cccc(C(=O)[*:3])c2)cc1)N[*:1])[*:2]; Indazole3carbonyl(1-CH2COOH) = O=C(O)Cn1nc(C(=O)*)c2ccccc21; Bip(4'-COOH) = N[C@@H](Cc1ccc(-c2ccc(C(=O)O)cc2)cc1)C(=O)O; Bip(4'-NHAc) = CC(=O)Nc1ccc(-c2ccc(C[C@H](N)C(=O)O)cc2)cc1; X25 = N=C(N)Nc1cccc(CNC(=N)NCCC[C@@H](N[*:1])C(=O)[*:2])c1; Ala(morpholin-4-yl) = N[C@@H](CN1CCOCC1)C(=O)O; Benzoyl(3-OCH2COOH) = O=C(O)COc1cccc(C(=O)*)c1; Phe(3-CONH2) = NC(=O)c1cccc(C[C@H](N)C(=O)O)c1; Bip = N[C@@H](Cc1ccc(-c2ccccc2)cc1)C(=O)O; X15 = O=C(O)c1cccc(Oc2ccccc2N*)c1; Hyp = O=C(O)[C@@H]1C[C@@H](O)CN1; 3Pal = N[C@@H](Cc1cccnc1)C(=O)O; 4Pal = N[C@@H](Cc1ccncc1)C(=O)O; Tic = O=C(O)[C@@H]1Cc2ccccc2CN1; Cha = N[C@@H](CC1CCCCC1)C(=O)O; Chg = N[C@H](C(=O)O)C1CCCCC1; Tle = CC(C)(C)[C@H](N)C(=O)O; Pip = O=C(O)[C@@H]1CCCCN1; Aze = O=C(O)[C@@H]1CCN1; Dab = NCC[C@H](N)C(=O)O; Sar = CNCC(=O)O

The compounds below were run against TNFα (Homo sapiens, UniProt P01375) (assay: TNF-Induced HEK-Blue Assay). Conditions: not given.
TNFα, sequence (P01375 77-233 limits assumed): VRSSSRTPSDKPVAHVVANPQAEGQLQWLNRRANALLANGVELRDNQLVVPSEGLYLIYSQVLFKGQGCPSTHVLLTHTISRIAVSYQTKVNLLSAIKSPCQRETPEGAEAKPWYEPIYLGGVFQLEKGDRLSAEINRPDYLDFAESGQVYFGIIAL
Format: cell-based

SMILES	pIC50
CC(C)C[C@@H]1NC(=O)[C@H](CCCNC(=N)N)NC(=O)[C@H](C(C)C)NC(=O)[C@@H]2CCCN2C(=O)[C@H](C(C)C)NC(=O)[C@@H](CCCNC(=N)NCc2cccc(NC(=N)N)c2)NC(=O)[C@H](CC(=O)O)NC(=O)[C@@H]2CCCN2C(=O)CN(C)C(=O)[C@H](Cc2ccc(-c3ccc(NC(=O)c4nn(CC(=O)O)c5ccccc45)cc3)cc2)NC(=O)[C@H](Cc2ccc(-c3ccccc3)cc2)NC(=O)[C@H](CN2CCOCC2)NC(=O)CSC[C@@H](C(=O)NCC(N)=O)NC1=O [Example 435] ({CH2CO}-[Ala(morpholin-4-yl)][Bip][Bip(4'-NH)](Indazole3carbonyl(1-CH2COOH))[Sar]PD[X25]VPVRLCG-NH2; thioether N-13)	> 7.30
CC[C@H](C)[C@@H]1NC(=O)[C@@H]2CCCN2C(=O)[C@H]([C@@H](C)CC)NC(=O)[C@@H](CCCNC(=N)N)NC(=O)[C@H](CC(=O)O)NC(=O)[C@H](Cc2ccccc2)NC(=O)CN(C)C(=O)[C@H](Cc2ccc(-c3ccc(NC(=O)c4ccccc4)cc3)cc2)NC(=O)[C@H](Cc2ccc(-c3ccc(C(=O)O)cc3)cc2)NC(=O)[C@H](C(C)(C)C)NC(=O)CSC[C@@H](C(=O)NCC(N)=O)NC(=O)[C@H](CC(C)C)NC(=O)[C@H](Cc2cnc[nH]2)NC1=O [Example 350] ({CH2CO}-[Tle][Bip(4'-COOH)][Bip(4'-NHBz)][Sar]FD[dR]IPIHLCG-NH2; thioether N-13)	> 7.30
CC(=O)Nc1ccc(-c2ccc(C[C@@H]3NC(=O)[C@H](Cc4ccc(-c5ccccc5)cc4)NC(=O)[C@H](CN4CCOCC4)NC(=O)CSC[C@@H](C(=O)NCC(N)=O)NC(=O)[C@H](CC(C)C)NC(=O)[C@H](Cc4cccc(C(N)=O)c4)NC(=O)[C@H](C4CCCCC4)NC(=O)[C@@H]4CCCN4C(=O)[C@H](C(C)C)NC(=O)[C@@H](CCCNC(=N)N)NC(=O)[C@H](CC(=O)O)NC(=O)[C@H](Cc4ccc(O)cc4)NC(=O)CN(C)C3=O)cc2)cc1 [Example 460] ({CH2CO}-[Ala(morpholin-4-yl)][Bip][Bip(4'-NHAc)][Sar]YD[dR]VP[Chg][Phe(3-CONH2)]LCG-NH2; thioether N-13)	> 7.30

Same assay, conditions: HEK-Blue-CD40L cells, NF-kB-driven secreted alkaline phosphatase reporter; TNFα 0.5 ng/ml; 18 h; read-out: TNF induced HEK-Blue assay IC50 value

SMILES	pIC50
CC(=O)Nc1ccc(-c2ccc(C[C@@H]3NC(=O)[C@H](Cc4ccc(-c5ccc(C(=O)O)cc5)cc4)NC(=O)[C@H](CN4CCOCC4)NC(=O)CSC[C@@H](C(=O)NCC(N)=O)NC(=O)[C@H](CC(C)C)NC(=O)[C@H](Cc4ccc(O)cc4)NC(=O)[C@H](C(C)C)NC(=O)[C@@H]4CCN4C(=O)[C@H](C(C)C)NC(=O)[C@@H](CCCNC(=N)N)NC(=O)[C@H](CC(=O)O)NC(=O)[C@H](Cc4ccc(O)cc4)NC(=O)CN(C)C3=O)cc2)cc1 [Example 166] ({CH2CO}-[Ala(morpholin-4-yl)][Bip(4'-COOH)][Bip(4'-NHAc)][Sar]YD[dR]V[Aze]VYLCG-NH2; thioether N-13)	> 7.30
CC(=O)Nc1ccc(-c2ccc(C[C@@H]3NC(=O)[C@H](Cc4ccc(-c5ccc(C(=O)O)cc5)cc4)NC(=O)[C@H](CN4CCOCC4)NC(=O)CSC[C@@H](C(=O)NCC(N)=O)NC(=O)[C@H](CC(C)C)NC(=O)[C@H](Cc4ccc(O)cc4)NC(=O)[C@H](C(C)C)NC(=O)[C@@H]4CCCCN4C(=O)[C@H](C(C)C)NC(=O)[C@@H](CCCNC(=N)N)NC(=O)[C@H](CC(=O)O)NC(=O)[C@H](Cc4ccc(O)cc4)NC(=O)CN(C)C3=O)cc2)cc1 [Example 168] ({CH2CO}-[Ala(morpholin-4-yl)][Bip(4'-COOH)][Bip(4'-NHAc)][Sar]YD[dR]V[Pip]VYLCG-NH2; thioether N-13)	> 7.30
CC(=O)Nc1ccc(-c2ccc(C[C@@H]3NC(=O)[C@H](Cc4ccc(-c5ccc(C(=O)O)cc5)cc4)NC(=O)[C@H](CN4CCOCC4)NC(=O)CSC[C@@H](C(=O)NCC(N)=O)NC(=O)[C@H](CC(C)C)NC(=O)[C@H](Cc4ccccc4)NC(=O)[C@H](C(C)C)NC(=O)[C@@H]4CCCN4C(=O)[C@H](C(C)C)NC(=O)[C@@H](CCCNC(=N)N)NC(=O)[C@H](CC(=O)O)NC(=O)[C@H](Cc4ccc(O)cc4)NC(=O)CN(C)C3=O)cc2)cc1 [Example 287] ({CH2CO}-[Ala(morpholin-4-yl)][Bip(4'-COOH)][Bip(4'-NHAc)][Sar]YD[dR]VPVFLCG-NH2; thioether N-13)	> 7.30
CC(=O)Nc1ccc(-c2ccc(C[C@@H]3NC(=O)[C@H](Cc4ccc(-c5ccc(C(=O)O)cc5)cc4)NC(=O)[C@H](CC4CCCCC4)NC(=O)CSC[C@@H](C(=O)N[C@@H](CCN)C(N)=O)NC(=O)[C@H](CC(C)C)NC(=O)[C@H](Cc4ccc(O)cc4)NC(=O)[C@H](C(C)C)NC(=O)[C@@H]4CCCN4C(=O)[C@H](C(C)C)NC(=O)[C@@H](CCCNC(=N)N)NC(=O)[C@H](CC(=O)O)NC(=O)[C@@H]4CCCN4C(=O)CN(C)C3=O)cc2)cc1 [Example 243] ({CH2CO}-[Cha][Bip(4'-COOH)][Bip(4'-NHAc)][Sar]PD[dR]VPVYLC[Dab]-NH2; thioether N-13)	6.70 to 7.30
CC(C)C[C@@H]1NC(=O)[C@H](Cc2ccc(O)cc2)NC(=O)[C@H](C(C)C)NC(=O)[C@@H]2CCCN2C(=O)[C@H](Cc2cccnc2)NC(=O)[C@@H](CCCNC(=N)N)NC(=O)[C@H](CC(=O)O)NC(=O)[C@@H]2CCCN2C(=O)CN(C)C(=O)[C@H](Cc2ccc(-c3ccccc3)cc2)NC(=O)[C@H](Cc2ccc(-c3ccccc3)cc2)NC(=O)[C@H](CN2CCOCC2)NC(=O)CSC[C@@H](C(=O)NCC(N)=O)NC1=O [Example 119] ({CH2CO}-[Ala(morpholin-4-yl)][Bip][Bip][Sar]PD[dR][3Pal]PVYLCG-NH2; thioether N-13)	5.70 to 6.70
CC[C@H](C)[C@@H]1NC(=O)[C@@H](CCCNC(=N)N)NC(=O)[C@H](CC(=O)O)NC(=O)[C@H](Cc2cnc[nH]2)NC(=O)CN(C)C(=O)[C@H](Cc2ccc(-c3ccc(NC(=O)c4cccc(CC(=O)O)c4)cc3)cc2)NC(=O)[C@H](Cc2ccc(-c3ccc(C(=O)O)cc3)cc2)NC(=O)[C@H](CC2CCCCC2)NC(=O)CSC[C@@H](C(=O)NCC(N)=O)NC(=O)[C@H](CC(C)C)NC(=O)[C@H](Cc2cccc(C(N)=O)c2)NC(=O)[C@H](C(C)C)NC(=O)[C@@H]2CCCN2C1=O [Example 588] ({CH2CO}-[Cha][Bip(4'-COOH)][Bip(4'-NHCO-C6H4-3-CH2COOH)][Sar]HD[dR]IPV[Phe(3-CONH2)]LCG-NH2; thioether N-13)	> 7.30
CC(C)C[C@@H]1NC(=O)[C@H](Cc2ccc(O)cc2)NC(=O)[C@H](C(C)C)NC(=O)[C@@H]2Cc3ccccc3CN2C(=O)[C@H](C(C)C)NC(=O)[C@@H](CCCNC(=N)N)NC(=O)[C@H](CC(=O)O)NC(=O)[C@@H]2CCCN2C(=O)CN(C)C(=O)[C@H](Cc2ccc(-c3ccccc3)cc2)NC(=O)[C@H](Cc2ccc(-c3ccccc3)cc2)NC(=O)[C@H](CN2CCOCC2)NC(=O)CSC[C@@H](C(=O)NCC(N)=O)NC1=O [Example 81] ({CH2CO}-[Ala(morpholin-4-yl)][Bip][Bip][Sar]PD[dR]V[Tic]VYLCG-NH2; thioether N-13)	6.70 to 7.30
CC(C)[C@@H]1NC(=O)[C@H](CCCNC(=N)N)NC(=O)[C@H](C(C)C)NC(=O)[C@@H]2CCCN2C(=O)[C@H](C(C)C)NC(=O)[C@H](CCCNC(=N)N)NC(=O)[C@H](CC(=O)O)NC(=O)[C@@H]2CCCN2C(=O)CN(C)C(=O)[C@H](Cc2ccc(-c3ccccc3)cc2)NC(=O)[C@H](Cc2ccncc2)NC(=O)[C@H](CN2CCOCC2)NC(=O)CSC[C@@H](C(=O)NCC(N)=O)NC1=O [Example 86] ({CH2CO}-[Ala(morpholin-4-yl)][4Pal][Bip][Sar]PDRVPVRVCG-NH2; thioether N-13)	6.70 to 7.30
CC[C@H](C)[C@@H]1NC(=O)[C@@H](CCCNC(=N)N)NC(=O)[C@H](CC(=O)O)NC(=O)[C@H](Cc2cnc[nH]2)NC(=O)CN(C)C(=O)[C@H](Cc2ccc(-c3ccc(C(=O)Nc4cccc(CC(=O)O)c4)cc3)cc2)NC(=O)[C@H](Cc2ccc(-c3ccc(C(=O)O)cc3)cc2)NC(=O)[C@H](CC2CCCCC2)NC(=O)CSC[C@@H](C(=O)NCC(N)=O)NC(=O)[C@H](CC(C)C)NC(=O)[C@H](Cc2cnc[nH]2)NC(=O)[C@H](C(C)C)NC(=O)[C@@H]2CCCN2C1=O [Example 630] ({CH2CO}-[Cha][Bip(4'-COOH)][X65][Sar]HD[dR]IPVHLCG-NH2; thioether N-13)	6.70 to 7.30
CC[C@H](C)[C@@H]1NC(=O)[C@@H](CCCNC(=N)N)NC(=O)[C@H](CC(=O)O)NC(=O)[C@H](Cc2cnc[nH]2)NC(=O)CN(C)C(=O)[C@H](Cc2ccc(-c3ccc(NC(=O)c4cccc(OCC(=O)O)c4)cc3)cc2)NC(=O)[C@H](Cc2ccc(-c3ccc(C(=O)O)cc3)cc2)NC(=O)[C@H](CC2CCCCC2)NC(=O)CSC[C@@H](C(=O)NCC(N)=O)NC(=O)[C@H](CC(C)C)NC(=O)[C@H](Cc2cccc(C(N)=O)c2)NC(=O)[C@H](C(C)C)NC(=O)[C@@H]2CCCN2C1=O [Example 586] ({CH2CO}-[Cha][Bip(4'-COOH)][Bip(4'-NH)](Benzoyl(3-OCH2COOH))[Sar]HD[dR]IPV[Phe(3-CONH2)]LCG-NH2; thioether N-13)	> 7.30
CC(C)C[C@@H]1NC(=O)[C@H](CCCNC(=N)N)NC(=O)[C@H](C(C)C)NC(=O)[C@@H]2CCCN2C(=O)[C@H](C(C)C)NC(=O)[C@@H](CCCNC(=N)N)NC(=O)[C@H](CC(=O)O)NC(=O)[C@@H]2CCCN2C(=O)CN(C)C(=O)[C@H](Cc2ccc(-c3cccc(C(=O)Nc4ccccc4Oc4cccc(C(=O)O)c4)c3)cc2)NC(=O)[C@H](Cc2ccc(-c3ccccc3)cc2)NC(=O)[C@H](CN2CCOCC2)NC(=O)CSC[C@@H](C(=O)NCC(N)=O)NC1=O [Example 306] ({CH2CO}-[Ala(morpholin-4-yl)][Bip][X14](X15)[Sar]PD[dR]VPVRLCG-NH2; thioether N-13)	6.70 to 7.30
CC(C)C[C@@H]1NC(=O)[C@H](CCCNC(=N)N)NC(=O)[C@H](C(C)C)NC(=O)[C@@H]2CCCN2C(=O)[C@H](C(C)C)NC(=O)[C@H](CCCNC(=N)N)NC(=O)[C@H](CC(=O)O)NC(=O)[C@@H]2C[C@@H](O)CN2C(=O)CN(C)C(=O)[C@H](Cc2ccc(-c3ccccc3)cc2)NC(=O)[C@H](Cc2ccc(-c3ccccc3)cc2)NC(=O)[C@H](Cc2ccccc2)NC(=O)CSC[C@@H](C(=O)NCC(N)=O)NC1=O [Example 44] ({CH2CO}-F[Bip][Bip][Sar][Hyp]DRVPVRLCG-NH2; thioether N-13)	5.70 to 6.70
